Measured values: the Bradley open melting point set (2014)
“And” between values parts separate entries of the source, which are not always exact repeats. Equal entries are not always repeated. Structures can show the parent of a compound that is named as a salt.

Q: For `CN(C)C=O` [N,N-Dimethylformamide], which melting point is on record?
A: -61 °C

Q: With `ClC(Cl)=C(Cl)c1c(Cl)c(Cl)c(Cl)c(Cl)c1Cl` [Octachlorostyrene] as the molecule, how does the melting point read?
A: 95 °C

Q: For `NCc1ccccc1` [Benzylamine], which melting point is on record?
A: 10 °C

Q: Which melting point does the source give for `CCC1(c2ccccc2)C(=O)NC(=O)N(C)C1=O` (configuration not stated) [mephobarbital] here?
A: 176 °C

Q: Which melting point does the source give for `N[C@H](CO)Cc1ccccc1` [L-phenylalaninol] here?
A: 92 °C

Q: For `COC(=O)OC` [dimethyl_carbonate], which melting point is on record?
A: 3 °C

Q: Which melting point does the source give for `Cc1ccccc1O` [o-Cresol] here?
A: 33 °C

Q: For `C(=C\c1ccccc1)/c1ccccc1` [trans-Stilbene], which melting point is on record?
A: 125 °C

Q: With `Nc1cc(Br)ccc1C(O)c1ccccc1` (configuration not stated) [(2-amino-4-bromophenyl)(phenyl)methanol] as the molecule, how does the melting point read?
A: 113 °C

Q: Which melting point does the source give for `O=Cc1cccc(C=O)c1` [isophthalaldehyde] here?
A: 89 °C

Q: With `COc1ccc(I)cc1N` [5-iodo-2-methoxyaniline] as the molecule, how does the melting point read?
A: 86 °C

Q: Which melting point does the source give for `O=C(O)C12CC3CC(CC(C3)C1)C2` [adamantane-1-carboxylic acid] here?
A: 175 °C

Q: For `Nc1nc(O)nc2c1cnn2CCO` [4-amino-1-(2-hydroxyethyl)-1H-pyrazolo[3,4-d]pyrimidin-6-ol], which melting point is on record?
A: 308 °C

Q: Which melting point does the source give for `COc1ccccc1NC(=O)c1cnc(C(C)(C)C)c(Cl)n1` here?
A: 119 °C

Q: With `C/C=C/CC` [trans-2-pentene] as the molecule, how does the melting point read?
A: -140 °C

Q: Which melting point does the source give for `CCCCCCCN` [1-aminoheptane] here?
A: -18 °C

Q: With `NC(=O)CN1Cc2ccccc2OC1=O` [caroxazone] as the molecule, how does the melting point read?
A: 203 °C

Q: With `COc1ccc(CCN)cc1OC` [2-(3,4-dimethoxyphenyl)ethylamine] as the molecule, how does the melting point read?
A: 11 °C

Q: For `Cl\C1=C(/Cl)C2(Cl)C3C4CC(C3C1(Cl)C2(Cl)Cl)C5OC45` (configuration not stated) [endrin], which melting point is on record?
A: 210 °C

Q: Which melting point does the source give for `Cc1ccc2oc(-c3cccc(O)c3)cc(=O)c2c1` [3'-hydroxy-6-methylflavone] here?
A: 205 °C

Q: With `C=CC(=O)OCC` [ethyl_acrylate] as the molecule, how does the melting point read?
A: -71 °C

Q: Which melting point does the source give for `CCCCC1C(=O)N(c2ccccc2)N(c2ccccc2)C1=O` [phenylbutazone] here?
A: 107 °C

Q: With `c1ccc2c(c1)Cc1ccccc1-2` [Fluorene] as the molecule, how does the melting point read?
A: 116 °C

Q: For `CN(C)c1ccc(N)cc1` [N,N-Dimethylbenzene-1,4-diamine], which melting point is on record?
A: 35 °C

Q: For `O=C1NC(=O)c2ccccc21` [phthalimide], which melting point is on record?
A: 234 °C

Q: With `CCC1OC(=O)C(C)C(OC2CC(C)(OC)C(O)C(C)O2)C(C)C(OC2OC(C)CC(N(C)C)C2O)C(C)(O)CC(C)C(=O)C(C)C(O)C1(C)O` (configuration not stated) [erythromycin] as the molecule, how does the melting point read?
A: 135 °C

Q: Which melting point does the source give for `O=S(=O)(O)c1ccccc1` [benzenesulfonic acid] here?
A: 48 °C

Q: With `COc1ccc(C(=O)/C=C/c2ccc(-c3ccccc3[N+](=O)[O-])o2)cc1OC` as the molecule, how does the melting point read?
A: 120 °C

Q: For `CC(Br)C(C)(Br)Br` (configuration not stated) [2,3,3-tribromobutane], which melting point is on record?
A: 2 °C

Q: With `Cc1noc(NS(=O)(=O)c2ccc(N)cc2)c1C` [4-Amino-N-(3,4-dimethyl-1,2-oxazol-5-yl)benzenesulfonamide] as the molecule, how does the melting point read?
A: 196 °C

Q: With `COc1ccc(C=C2N=C(c3ccccc3)OC2=O)cc1` [4-(4-methoxybenzylidene)-2-phenyl-1,3-oxazol-5(4H)-one] as the molecule, how does the melting point read?
A: 152 °C

Q: Which melting point does the source give for `C=Cc1ccc(C#N)cc1` [p-cyanostyrene] here?
A: -15 °C

Q: With `CC1(C)OC(=O)NC1=O` [5,5-dimethyloxazolidine-2,4-dione] as the molecule, how does the melting point read?
A: 79 °C

Q: For `O=C(O)c1ccc(F)c(F)c1` [3,4-difluorobenzoic acid], which melting point is on record?
A: 123 °C

Q: For `CCCCCCCC/C=C/CCCCCCCC(=O)OC` [methyl elaidate], which melting point is on record?
A: 10 °C

Q: For `C=CC` [Propylene], which melting point is on record?
A: -185 °C

Q: Which melting point does the source give for `N#Cc1ccc(C#N)cc1` [terephthalonitrile] here?
A: 226 °C

Q: For `OCc1ccccc1I` [o-iodobenzyl_alcohol], which melting point is on record?
A: 92 °C

Q: Which melting point does the source give for `O=C(O)Cc1ccc(OC(F)(F)F)cc1` [4-(trifluoromethoxy)phenylacetic acid] here?
A: 87 °C

Q: Which melting point does the source give for `O=[PH](O)c1ccccc1` [phenylphosphinic acid] here?
A: 84 °C

Q: With `CCCCCCCCCCCCCCCCC` [heptadecane] as the molecule, how does the melting point read?
A: 22 °C

Q: For `NC(=O)CCCCC(N)=O` [Adipamide], which melting point is on record?
A: 220 °C

Q: For `CCCCN1CCCCC1C(=O)Nc1c(C)cccc1C` (configuration not stated) [Bupivacaine], which melting point is on record?
A: 108 °C

Q: With `COC(=O)c1ncoc1C(=O)OC` [dimethyl oxazole-4,5-dicarboxylate] as the molecule, how does the melting point read?
A: 75 °C

Q: Which melting point does the source give for `c1ccc(N=Nc2ccc(Nc3ccccc3)cc2)cc1` [4-phenylazodiphenylamine] here?
A: 83 °C

Q: For `OC(c1ccccc1)(c1ccccc1)C1CCNCC1` [azacyclonol], which melting point is on record?
A: 160 °C

Q: For `Clc1ccc(-c2nc3c4ccccc4ccn3n2)cc1` [lotrifen], which melting point is on record?
A: 238 °C

Q: Which melting point does the source give for `Cc1nccnc1C` [2,3-dimethylpyrazine] here?
A: -12 °C

Q: Which melting point does the source give for `NCCNCCNCCNCCN` here?
A: -40 °C

Q: Which melting point does the source give for `NC1CCCCC1` [cyclohexylamine] here?
A: -18 °C

Q: With `CC(C)(C)I` [2-Iodo-2-methylpropane] as the molecule, how does the melting point read?
A: -38 °C

Q: With `COc1cc(Cl)nc(OC)n1` [6-chloro-2,4-dimethoxypyrimidine] as the molecule, how does the melting point read?
A: 72 °C

Q: For `CCC1(c2ccccc2)C(=O)NC(=O)NC1=O` [Phenobarbital], which melting point is on record?
A: 176 °C

Q: With `CC1(C)C(=O)[C@]2(C)CC[C@H]1C2` [fenchone] as the molecule, how does the melting point read?
A: 4 °C

Q: For `NS(=O)(=O)c1cc2c(cc1Cl)NC(C1CC3C=CC1C3)NS2(=O)=O` (configuration not stated) [Cyclothiazide], which melting point is on record?
A: 228 °C

Q: With `CC(=O)NS(=O)(=O)c1ccc(N)cc1` [N-[(4-Aminophenyl)sulfonyl]acetamide] as the molecule, how does the melting point read?
A: 182 °C

Q: For `CC1=CC(=O)CC(C)(C)C1` [isophorone], which melting point is on record?
A: -8 °C

Q: For `O=C(O)Cc1ccccc1` [phenylacetic_acid], which melting point is on record?
A: 79 °C

Q: With `OC1CCCCCCC1` [cyclooctanol] as the molecule, how does the melting point read?
A: 15 °C

Q: For `O=C(O)CCC(=O)c1ccc(-c2ccccc2)cc1` [Fenbufen], which melting point is on record?
A: 186 °C

Q: With `N[C@@H](CO)Cc1ccccc1` [D-phenylalaninol] as the molecule, how does the melting point read?
A: 92 °C

Q: Which melting point does the source give for `O=C(O)c1cc(F)cc(F)c1O` [3,5-difluorosalicylic acid] here?
A: 189 °C

Q: For `CC(=O)c1cc(C)cc(C)c1` [3',5'-dimethylacetophenone], which melting point is on record?
A: 20 °C

Q: Which melting point does the source give for `C[C@@H](O)[C@@H](N)C(=O)O` [D-allo-threonine] here?
A: 278 °C

Q: With `CCN1CCNC(=O)C1=O` [1-ethylpiperazine-2,3-dione] as the molecule, how does the melting point read?
A: 110 °C

Q: Which melting point does the source give for `O=c1cc(-c2ccc(O)c(O)c2)oc2ccccc12` [3',4'-dihydroxyflavone] here?
A: 251 °C

Q: With `OCc1cc2ccccc2s1` [benzo[b]thiophene-2-methanol] as the molecule, how does the melting point read?
A: 100 °C

Q: With `C[C@]12CCC(O)CC1=CC(=O)[C@@H]1[C@@H]2CC[C@]2(C)C(=O)CC[C@@H]12` (some centres not stated) [3-hydroxyandrost-5-ene-7,17-dione] as the molecule, how does the melting point read?
A: 238 °C

Q: Which melting point does the source give for `CCOC(=O)CC(C)C` [ethyl isovalerate] here?
A: -99 °C

Q: For `O=[N+]([O-])c1ccc(N=Nc2ccc(O)cc2O)cc1` [4-[(4-Nitrophenyl)diazenyl]benzene-1,3-diol], which melting point is on record?
A: 200 °C

Q: For `CC(=O)OCC1OC(OC2C(COC(C)=O)OC(OC(C)=O)C(OC(C)=O)C2OC(C)=O)C(OC(C)=O)C(OC(C)=O)C1OC(C)=O` (configuration not stated), which melting point is on record?
A: 138 °C

Q: For `O=C(O)c1ccc(O)cc1` [4-hydroxybenzoic acid], which melting point is on record?
A: 214 °C and 215 °C

Q: For `CCCCCCCCCCCCCCCCCC(=O)O[C@H]1CC[C@@]2(C)C(=CC[C@H]3[C@@H]4CC[C@H]([C@H](C)CCCC(C)C)[C@@]4(C)CC[C@@H]32)C1` [cholesteryl stearate], which melting point is on record?
A: 80 °C

Q: With `O=S(=O)(O)O` [Sulfuric acid] as the molecule, how does the melting point read?
A: -2 °C

Q: For `CC(=O)CC(C)=O` [2,4-pentanedione], which melting point is on record?
A: -23 °C

Q: For `Clc1cc(-c2ccccn2)nc(-c2ccccn2)c1` [4'-chloro-2,2':6',2''-terpyridine], which melting point is on record?
A: 150 °C

Q: Which melting point does the source give for `Clc1ccc(C(c2ccc(Cl)cc2)C(Cl)(Cl)Cl)cc1` [DDT] here?
A: 109 °C (4×) and 108 °C (2×)

Q: Which melting point does the source give for `CC(C)Cc1ccc(C(C)C(=O)O)cc1` (configuration not stated) [Ibumetin] here?
A: 75 °C

Q: With `N#Cc1ccc2ncsc2c1` [benzothiazole-6-carbonitrile] as the molecule, how does the melting point read?
A: 138 °C

Q: For `CB(O)O` [methylboronic acid], which melting point is on record?
A: 92 °C

Q: For `O=C1c2ccccc2C(=O)N1OCCCCBr` [N-(4-bromobutoxy)phthalimide], which melting point is on record?
A: 71 °C

Q: With `CCCCCCCCCCCCCCCCCCC` [N-nonadecane] as the molecule, how does the melting point read?
A: 33 °C

Q: Which melting point does the source give for `COc1ccc(C(=O)O)cc1` [p-anisic_acid] here?
A: 184 °C

Q: For `CC(C)(C)N1CCNC1=O` [1-tert-butyl-2-imidazolidinone], which melting point is on record?
A: 137 °C

Q: For `O=C1c2ccccc2-c2ccccc21` [9-fluorenone], which melting point is on record?
A: 84 °C

Q: For `Cc1cc([N+](=O)[O-])cc[n+]1[O-]` [4-nitro-2-picoline n-oxide], which melting point is on record?
A: 156 °C

Q: With `ClC5(Cl)[C@]3(Cl)C(\Cl)=C(\Cl)[C@@]5(Cl)[C@H]4[C@H]1C[C@H]([C@@H]2O[C@H]12)[C@@H]34` [dieldrin] as the molecule, how does the melting point read?
A: 175 °C

Q: Which melting point does the source give for `Clc1cccc2ccccc12` [1-chloronaphthalene] here?
A: -8 °C

Q: For `CCOC(=O)c1sc2sc(C#N)c(N)c2c1N`, which melting point is on record?
A: 262 °C

Q: With `O=C1C=C(NCCc2ccccn2)C(=O)c2ccccc21` [2-[(2-pyridin-2-ylethyl)amino]naphthalene-1,4-dione] as the molecule, how does the melting point read?
A: 129 °C

Q: Which melting point does the source give for `CCOC(=O)CC` [ethyl propionate] here?
A: -73 °C

Q: Which melting point does the source give for `CC(=O)Nc1ccccc1NNc1ccccc1` [N-[2-(2-phenylhydrazino)phenyl]acetamide] here?
A: 168 °C

Q: For `c1ccc(C/C(=N\Nc2ccccc2)c2ccc3ccccc3c2)cc1`, which melting point is on record?
A: 166 °C

Q: For `CCOCCO` [2-ethoxyethanol], which melting point is on record?
A: -90 °C

Q: Which melting point does the source give for `Cc1ccn(C(N)=O)n1` [1-carbamoyl-3-methylpyrazole] here?
A: 148 °C

Q: With `CCCOC1CCC2C3CCC4=CC(=O)CCC4(C)C3CCC12C` (configuration not stated) [17-propoxyandrost-4-en-3-one] as the molecule, how does the melting point read?
A: 118 °C

Q: For `Cc1ccc(-c2csc(/C(C#N)=N/Nc3cccc(C)c3)n2)cc1`, which melting point is on record?
A: 133 °C

Q: For `CCOS(=O)(=O)OCC` [Diethyl sulfate], which melting point is on record?
A: -24 °C

Q: For `OCCCCO` [1,4-Butanediol], which melting point is on record?
A: 20.1 °C

Q: With `COc1ccc2cc(OC)ccc2c1` [2,6-dimethoxynaphthalene] as the molecule, how does the melting point read?
A: 153 °C

Q: Which melting point does the source give for `CCCOC(=O)c1ccc(O)cc1` [propylparaben] here?
A: 96.5 °C

Q: For `CNC(=O)c1cc([N+](=O)[O-])cc([N+](=O)[O-])c1` [benzamide, N-methyl-3,5-dinitro-], which melting point is on record?
A: 149 °C
